{"source": "ChEMBL document CHEMBL5212743", "about": "“Selectivity Literature for EUbOPEN Chemogenomics Library wave 3” (2023)", "key": {"Aurora kinase B": {"molecular_target": "Aurora kinase B (Homo sapiens, UniProt Q96GD4)", "sequence (Q96GD4 whole entry)": "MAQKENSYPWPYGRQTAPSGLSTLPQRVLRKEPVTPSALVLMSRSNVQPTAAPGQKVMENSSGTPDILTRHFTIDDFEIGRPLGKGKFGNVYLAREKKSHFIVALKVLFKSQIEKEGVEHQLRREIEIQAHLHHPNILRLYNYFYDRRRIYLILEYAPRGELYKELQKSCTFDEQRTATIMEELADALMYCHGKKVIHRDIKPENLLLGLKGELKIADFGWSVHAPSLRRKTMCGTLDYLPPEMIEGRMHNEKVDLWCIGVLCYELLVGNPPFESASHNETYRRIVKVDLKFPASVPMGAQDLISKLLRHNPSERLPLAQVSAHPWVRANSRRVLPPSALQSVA", "assay": "Selectivity interaction (KinomeScan (DiscoverX)) EUB0000178b AURKB", "conditions": "at 1 µM"}, "[1]": {"molecular_target": "Aurora kinase A (Homo sapiens) (UniProt O14965)", "sequence (O14965 whole entry)": "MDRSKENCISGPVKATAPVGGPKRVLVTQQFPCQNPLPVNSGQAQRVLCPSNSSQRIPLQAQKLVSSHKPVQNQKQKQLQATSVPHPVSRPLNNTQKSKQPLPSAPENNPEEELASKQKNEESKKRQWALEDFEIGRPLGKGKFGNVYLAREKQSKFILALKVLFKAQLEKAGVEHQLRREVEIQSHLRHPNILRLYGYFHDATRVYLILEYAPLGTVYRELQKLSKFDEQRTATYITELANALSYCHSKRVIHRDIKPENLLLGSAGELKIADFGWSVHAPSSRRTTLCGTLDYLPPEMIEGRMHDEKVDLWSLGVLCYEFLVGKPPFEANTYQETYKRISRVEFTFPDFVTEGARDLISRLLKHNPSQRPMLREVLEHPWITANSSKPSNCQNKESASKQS", "assay": "Selectivity interaction (KinomeScan (DiscoverX)) EUB0000178b STK6", "conditions": "at 1 µM"}, "[2]": {"molecular_target": "T1, Non-receptor tyrosine-protein kinase TYK2 (Homo sapiens, UniProt P29597)", "T1 sequence (P29597 whole entry)": "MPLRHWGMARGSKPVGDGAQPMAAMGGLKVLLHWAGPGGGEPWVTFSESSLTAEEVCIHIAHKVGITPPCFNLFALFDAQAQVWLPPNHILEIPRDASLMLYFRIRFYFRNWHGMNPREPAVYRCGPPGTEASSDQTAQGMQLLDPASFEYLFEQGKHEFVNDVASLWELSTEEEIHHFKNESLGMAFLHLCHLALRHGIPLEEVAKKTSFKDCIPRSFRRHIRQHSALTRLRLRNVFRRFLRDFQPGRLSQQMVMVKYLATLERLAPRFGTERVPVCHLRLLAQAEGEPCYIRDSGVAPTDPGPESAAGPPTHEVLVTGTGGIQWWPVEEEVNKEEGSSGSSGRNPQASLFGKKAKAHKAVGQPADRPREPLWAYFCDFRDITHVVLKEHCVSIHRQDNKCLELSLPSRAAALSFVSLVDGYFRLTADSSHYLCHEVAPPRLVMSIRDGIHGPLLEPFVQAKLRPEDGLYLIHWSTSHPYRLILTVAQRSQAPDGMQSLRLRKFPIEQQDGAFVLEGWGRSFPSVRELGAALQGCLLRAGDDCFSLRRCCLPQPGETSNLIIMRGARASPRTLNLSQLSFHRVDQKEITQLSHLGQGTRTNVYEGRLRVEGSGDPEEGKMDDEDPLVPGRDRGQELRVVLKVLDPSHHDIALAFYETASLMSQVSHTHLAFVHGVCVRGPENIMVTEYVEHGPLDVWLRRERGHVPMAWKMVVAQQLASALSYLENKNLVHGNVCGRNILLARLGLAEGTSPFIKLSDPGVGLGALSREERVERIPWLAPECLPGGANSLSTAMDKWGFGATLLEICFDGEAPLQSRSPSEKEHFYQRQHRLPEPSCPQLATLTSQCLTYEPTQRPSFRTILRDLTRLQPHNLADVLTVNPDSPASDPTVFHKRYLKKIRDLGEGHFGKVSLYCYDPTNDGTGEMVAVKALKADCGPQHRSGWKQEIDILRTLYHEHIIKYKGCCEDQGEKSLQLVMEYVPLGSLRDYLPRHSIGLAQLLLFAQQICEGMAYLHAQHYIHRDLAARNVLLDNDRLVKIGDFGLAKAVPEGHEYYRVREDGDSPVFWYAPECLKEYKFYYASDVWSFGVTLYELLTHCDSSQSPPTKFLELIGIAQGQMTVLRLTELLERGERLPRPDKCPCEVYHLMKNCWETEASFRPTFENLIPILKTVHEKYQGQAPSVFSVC", "assay": "Selectivity interaction (KinomeScan (DiscoverX)) EUB0000178b TYK2", "conditions": "at 1 µM"}, "[3]": {"molecular_target": "Serine/threonine-protein kinase 24 (Homo sapiens) (UniProt Q9Y6E0)", "sequence (Q9Y6E0 whole entry, looked up)": "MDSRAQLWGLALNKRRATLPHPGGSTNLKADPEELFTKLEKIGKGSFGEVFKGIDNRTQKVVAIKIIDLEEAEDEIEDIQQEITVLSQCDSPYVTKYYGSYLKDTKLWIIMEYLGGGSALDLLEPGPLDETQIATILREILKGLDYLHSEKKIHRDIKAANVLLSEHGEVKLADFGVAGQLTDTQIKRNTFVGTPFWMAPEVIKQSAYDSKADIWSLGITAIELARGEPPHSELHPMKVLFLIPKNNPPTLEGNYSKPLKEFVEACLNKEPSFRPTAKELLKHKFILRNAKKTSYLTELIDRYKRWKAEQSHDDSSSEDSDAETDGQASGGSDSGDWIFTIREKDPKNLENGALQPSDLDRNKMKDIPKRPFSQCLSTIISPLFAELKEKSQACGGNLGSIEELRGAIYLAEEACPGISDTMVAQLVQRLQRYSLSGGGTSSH", "assay": "Selectivity interaction (KinomeScan (DiscoverX)) EUB0000178b STK24", "conditions": "at 1 µM"}, "[4]": {"molecular_target": "Phosphatidylinositol 4-phosphate 5-kinase type-1 gamma (Homo sapiens) (UniProt O60331)", "sequence (O60331 whole entry)": "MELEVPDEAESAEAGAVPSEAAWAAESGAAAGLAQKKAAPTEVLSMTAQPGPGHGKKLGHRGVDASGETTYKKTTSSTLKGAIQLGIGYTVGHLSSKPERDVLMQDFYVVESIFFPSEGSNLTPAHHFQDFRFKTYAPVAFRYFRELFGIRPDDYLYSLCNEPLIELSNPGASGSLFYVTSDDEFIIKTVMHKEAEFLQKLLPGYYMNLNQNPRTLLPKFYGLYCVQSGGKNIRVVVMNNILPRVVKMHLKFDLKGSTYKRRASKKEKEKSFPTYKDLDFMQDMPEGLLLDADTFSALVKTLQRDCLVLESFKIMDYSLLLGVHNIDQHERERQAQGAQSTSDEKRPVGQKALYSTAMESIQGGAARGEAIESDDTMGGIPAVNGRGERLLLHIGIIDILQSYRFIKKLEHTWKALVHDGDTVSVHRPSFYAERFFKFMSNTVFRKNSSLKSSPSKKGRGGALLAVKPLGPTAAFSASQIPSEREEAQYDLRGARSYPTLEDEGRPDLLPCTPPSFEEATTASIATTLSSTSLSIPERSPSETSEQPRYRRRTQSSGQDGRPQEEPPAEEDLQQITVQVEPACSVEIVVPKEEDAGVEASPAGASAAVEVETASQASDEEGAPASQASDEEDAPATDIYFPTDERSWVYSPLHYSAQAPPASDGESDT", "assay": "Selectivity interaction (KinomeScan (DiscoverX)) EUB0000178b PIP5K1C", "conditions": "at 1 µM"}, "[5]": {"molecular_target": "T1, Non-receptor tyrosine-protein kinase TYK2", "assay": "Selectivity interaction (KinomeScan (DiscoverX, competition-binding assay)) EUB0000178b TYK2"}, "[6]": {"molecular_target": "Mitogen-activated protein kinase kinase kinase 3 (Homo sapiens) (UniProt Q99759)", "assay": "Selectivity interaction (KinomeScan (DiscoverX)) EUB0000178b MAP3K3", "conditions": "at 1 µM"}, "[7]": {"molecular_target": "Phosphatidylinositol 4-phosphate 5-kinase type-1 gamma (Homo sapiens) (UniProt O60331)", "assay": "Selectivity interaction (KinomeScan (DiscoverX)) EUB0000698a PIP5K1C", "conditions": "at 10 µM"}, "[8]": {"molecular_target": "T2, Phosphatidylinositol 5-phosphate 4-kinase type-2 beta (Homo sapiens) (UniProt P78356)", "T2 sequence (whole entry)": "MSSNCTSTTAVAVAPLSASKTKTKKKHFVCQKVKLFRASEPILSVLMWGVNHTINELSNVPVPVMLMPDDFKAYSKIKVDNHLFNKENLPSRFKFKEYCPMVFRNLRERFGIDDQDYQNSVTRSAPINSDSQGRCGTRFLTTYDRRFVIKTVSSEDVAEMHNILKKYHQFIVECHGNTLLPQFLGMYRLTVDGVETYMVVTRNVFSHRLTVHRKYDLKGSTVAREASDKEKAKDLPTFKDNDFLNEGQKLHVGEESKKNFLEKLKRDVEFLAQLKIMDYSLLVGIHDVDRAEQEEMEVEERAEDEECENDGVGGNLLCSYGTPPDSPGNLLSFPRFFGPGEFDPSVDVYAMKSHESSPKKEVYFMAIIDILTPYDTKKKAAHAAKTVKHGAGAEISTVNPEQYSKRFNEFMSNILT", "assay": "Selectivity interaction (KinomeScan (DiscoverX)) EUB0000698a PIP4K2B", "conditions": "at 10 µM"}, "[9]": {"molecular_target": "T3, Dual specificity mitogen-activated protein kinase kinase 5 (Homo sapiens) (UniProt Q13163)", "T3 sequence (whole entry)": "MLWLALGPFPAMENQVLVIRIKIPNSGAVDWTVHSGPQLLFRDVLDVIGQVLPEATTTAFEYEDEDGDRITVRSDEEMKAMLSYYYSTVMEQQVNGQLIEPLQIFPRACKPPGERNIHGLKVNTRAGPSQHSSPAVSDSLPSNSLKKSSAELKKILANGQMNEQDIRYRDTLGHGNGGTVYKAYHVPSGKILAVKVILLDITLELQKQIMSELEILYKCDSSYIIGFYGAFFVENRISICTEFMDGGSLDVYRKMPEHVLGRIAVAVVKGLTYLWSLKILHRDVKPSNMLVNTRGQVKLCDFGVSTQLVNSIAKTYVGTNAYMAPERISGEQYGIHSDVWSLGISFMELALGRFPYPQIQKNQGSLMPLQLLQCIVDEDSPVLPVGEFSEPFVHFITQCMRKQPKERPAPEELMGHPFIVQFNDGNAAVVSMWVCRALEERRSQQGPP", "assay": "Selectivity interaction (KinomeScan (DiscoverX)) EUB0000698a MAP2K5", "conditions": "at 10 µM"}, "[10]": {"molecular_target": "Serine/threonine-protein kinase RIO1 (Homo sapiens) (UniProt Q9BRS2)", "assay": "Selectivity interaction (KinomeScan (DiscoverX)) EUB0000698a RIOK1", "conditions": "at 10 µM"}, "[11]": {"molecular_target": "Proto-oncogene tyrosine-protein kinase ROS (Homo sapiens) (UniProt P08922)", "conditions": "at 1 µM"}, "[12]": {"molecular_target": "Dual specificity protein kinase CLK1 (Homo sapiens, UniProt P49759)", "assay": "Selectivity interaction (KinomeScan (DiscoverX)) EUB0000702a CLK1", "conditions": "at 1 µM"}, "[13]": {"molecular_target": "Tyrosine-protein kinase JAK2 (Homo sapiens, UniProt O60674)", "assay": "Selectivity interaction (KinomeScan (DiscoverX)) EUB0000702a JAK2", "conditions": "at 1 µM"}, "[14]": {"molecular_target": "Casein kinase II subunit alpha' (Homo sapiens) (UniProt P19784)", "sequence (P19784 whole entry, looked up)": "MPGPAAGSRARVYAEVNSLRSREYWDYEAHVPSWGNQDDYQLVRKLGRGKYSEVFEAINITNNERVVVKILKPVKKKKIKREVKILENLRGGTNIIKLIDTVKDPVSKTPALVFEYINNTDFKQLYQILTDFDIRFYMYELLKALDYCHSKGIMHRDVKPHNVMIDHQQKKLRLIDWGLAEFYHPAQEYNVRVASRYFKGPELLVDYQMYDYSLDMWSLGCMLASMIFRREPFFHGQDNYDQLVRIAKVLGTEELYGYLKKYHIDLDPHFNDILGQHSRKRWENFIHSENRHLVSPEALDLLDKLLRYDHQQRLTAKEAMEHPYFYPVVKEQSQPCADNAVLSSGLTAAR", "assay": "Selectivity interaction (KinomeScan (DiscoverX)) EUB0000702a CSNK2A2", "conditions": "at 1 µM"}, "[15]": {"molecular_target": "Mitogen-activated protein kinase kinase kinase 1 (Homo sapiens) (UniProt Q13233)", "assay": "Selectivity interaction (KinomeScan (DiscoverX)) EUB0000702a MAP3K1", "conditions": "at 1 µM"}, "[16]": {"molecular_target": "T2, Phosphatidylinositol 5-phosphate 4-kinase type-2 beta (Homo sapiens)", "assay": "Selectivity interaction (KinomeScan (DiscoverX)) EUB0000702a PIP4K2B", "conditions": "at 1 µM"}, "[17]": {"molecular_target": "T4, Dual specificity mitogen-activated protein kinase kinase 5 (Homo sapiens, UniProt Q13163)", "T4 sequence (Q13163 whole entry)": "T3 sequence (whole entry)", "assay": "Selectivity interaction (NanoBRET assay (HEK293T cells)) EUB0000305b MAP2K5"}, "[18]": {"molecular_target": "Mitogen-activated protein kinase 1 (Homo sapiens, UniProt P28482)", "sequence (P28482 whole entry)": "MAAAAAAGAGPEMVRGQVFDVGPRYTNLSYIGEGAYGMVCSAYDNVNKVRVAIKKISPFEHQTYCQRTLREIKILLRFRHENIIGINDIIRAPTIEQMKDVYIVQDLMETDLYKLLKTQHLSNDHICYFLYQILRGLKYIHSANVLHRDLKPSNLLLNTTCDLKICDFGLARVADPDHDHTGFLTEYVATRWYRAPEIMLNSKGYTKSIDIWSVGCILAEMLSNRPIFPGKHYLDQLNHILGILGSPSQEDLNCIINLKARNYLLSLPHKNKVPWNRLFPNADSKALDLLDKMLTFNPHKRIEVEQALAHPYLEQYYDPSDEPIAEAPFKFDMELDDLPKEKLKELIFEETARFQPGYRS", "assay": "Selectivity interaction (Kinase panel (University of Dundee)) EUB0000169b MAPK1", "conditions": "at 10 µM"}, "[19]": {"molecular_target": "MAP kinase-activated protein kinase 5 (Homo sapiens) (UniProt Q8IW41)", "conditions": "at 10 µM"}, "[20]": {"molecular_target": "Tyrosine-protein kinase CSK (Homo sapiens) (UniProt P41240)", "assay": "Selectivity interaction (Kinase panel (University of Dundee)) EUB0000169b CSK", "conditions": "at 10 µM"}, "[21]": {"molecular_target": "Dual specificity tyrosine-phosphorylation-regulated kinase 1A (Homo sapiens, UniProt Q13627)", "assay": "Selectivity interaction (Kinase panel (University of Dundee)) EUB0000169b DYRK1A", "conditions": "at 10 µM"}, "[22]": {"molecular_target": "Phosphorylase b kinase regulatory subunit alpha, liver isoform (Homo sapiens) (UniProt P46019)", "sequence (P46019 whole entry, canonical isoform)": "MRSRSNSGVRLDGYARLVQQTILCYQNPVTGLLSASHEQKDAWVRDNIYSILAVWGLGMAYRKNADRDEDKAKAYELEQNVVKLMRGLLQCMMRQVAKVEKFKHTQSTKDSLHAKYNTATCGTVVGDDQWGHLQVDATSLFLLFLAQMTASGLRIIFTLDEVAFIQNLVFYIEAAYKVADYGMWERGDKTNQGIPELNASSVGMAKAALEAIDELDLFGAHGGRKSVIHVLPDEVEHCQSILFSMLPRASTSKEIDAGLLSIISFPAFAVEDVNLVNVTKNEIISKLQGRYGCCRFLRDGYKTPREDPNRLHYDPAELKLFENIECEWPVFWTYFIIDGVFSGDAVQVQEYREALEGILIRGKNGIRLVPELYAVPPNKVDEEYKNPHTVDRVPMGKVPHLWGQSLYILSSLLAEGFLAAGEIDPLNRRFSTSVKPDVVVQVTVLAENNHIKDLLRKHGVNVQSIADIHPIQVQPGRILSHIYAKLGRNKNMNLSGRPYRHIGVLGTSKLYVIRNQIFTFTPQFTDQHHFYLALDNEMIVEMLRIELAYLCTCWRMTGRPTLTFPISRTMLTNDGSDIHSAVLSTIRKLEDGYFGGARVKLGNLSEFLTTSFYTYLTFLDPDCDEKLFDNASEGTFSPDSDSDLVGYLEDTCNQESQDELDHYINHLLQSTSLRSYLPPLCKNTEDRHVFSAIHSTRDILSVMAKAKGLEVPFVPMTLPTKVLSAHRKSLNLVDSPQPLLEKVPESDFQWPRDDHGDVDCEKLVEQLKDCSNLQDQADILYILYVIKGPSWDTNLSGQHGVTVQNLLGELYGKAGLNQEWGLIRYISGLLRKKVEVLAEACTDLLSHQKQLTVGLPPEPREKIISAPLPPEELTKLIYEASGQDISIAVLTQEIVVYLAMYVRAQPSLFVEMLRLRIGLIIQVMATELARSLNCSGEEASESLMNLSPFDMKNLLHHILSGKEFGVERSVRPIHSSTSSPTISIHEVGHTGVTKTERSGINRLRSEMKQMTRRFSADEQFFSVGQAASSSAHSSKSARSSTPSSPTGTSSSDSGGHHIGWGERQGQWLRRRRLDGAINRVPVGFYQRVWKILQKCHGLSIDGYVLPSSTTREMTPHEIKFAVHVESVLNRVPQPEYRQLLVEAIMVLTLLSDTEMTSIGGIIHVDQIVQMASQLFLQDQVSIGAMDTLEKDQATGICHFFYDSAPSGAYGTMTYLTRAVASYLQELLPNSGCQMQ", "assay": "Selectivity interaction (Kinase panel (University of Dundee)) EUB0000169b PHKA2", "conditions": "at 10 µM"}, "[23]": {"molecular_target": "Serine/threonine-protein kinase PLK2 (Homo sapiens) (UniProt Q9NYY3)", "assay": "Selectivity interaction (KinomeScan (DiscoverX)) EUB0000169b PLK2", "conditions": "at 1 µM"}}, "note": "pIC50, pKd: −log10 of the molar value."}
{"smiles": "CN1C(=O)c2sccc2N(C)c2nc(Nc3ccc(S(N)(=O)=O)cc3)ncc21", "values": [{"measurement": "% of control", "setting": "Aurora kinase B", "value": 3.4, "unit": "%"}, {"measurement": "% of control", "setting": "[1]", "value": 0.05, "unit": "%"}, {"measurement": "% of control", "setting": "[2]", "value": 2.7, "unit": "%"}, {"measurement": "% of control", "setting": "[3]", "value": 0.9, "unit": "%"}, {"measurement": "% of control", "setting": "[4]", "value": 10, "unit": "%"}, {"measurement": "pKd", "setting": "[5]", "value": 6.21}, {"measurement": "% of control", "setting": "[6]", "value": 2, "unit": "%"}]}
{"smiles": "COc1cc2ncn(-c3cc(OCc4ccccc4C(F)(F)F)c(C(N)=O)s3)c2cc1OC", "note": "[GW843682X]", "values": [{"measurement": "% of control", "setting": "[7]", "value": 10, "unit": "%"}, {"measurement": "% of control", "setting": "[8]", "value": 6.6, "unit": "%"}, {"measurement": "% of control", "setting": "[9]", "value": 0.5, "unit": "%"}, {"measurement": "% of control", "setting": "[10]", "value": 4.1, "unit": "%"}]}
{"smiles": "CCOc1cn(-c2ccc(F)cc2C)nc1C(=O)Nc1ccc(Oc2ccnc3cc(OC)c(OC)cc23)c(F)c1", "values": [{"measurement": "% of control", "setting": "[11]", "value": "< 10", "unit": "%"}]}
{"smiles": "CN(c1ccnc(CNc2nc(Nc3ccc4c(c3)CC(=O)N4)ncc2C(F)(F)F)n1)S(C)(=O)=O", "note": "[PF-00911705]", "values": [{"measurement": "% of control", "setting": "[12]", "value": 4.4, "unit": "%"}, {"measurement": "% of control", "setting": "[13]", "value": 3.8, "unit": "%"}, {"measurement": "% of control", "setting": "[14]", "value": 66.7, "unit": "%"}, {"measurement": "% of control", "setting": "[15]", "value": 0, "unit": "%"}, {"measurement": "% of control", "setting": "[16]", "value": 4.8, "unit": "%"}]}
{"smiles": "C[C@H](c1ccnc(Nc2nc3ccc(-c4cc(N(C)C)ncn4)cc3[nH]2)c1)N1CCN(C(=O)CC(F)(F)F)CC1", "note": "[BAY-985]", "values": [{"measurement": "pIC50", "setting": "[17]", "value": "< 4.70"}]}
{"smiles": "CC[C@@H]1C(=O)N(C)c2cnc(Nc3ccc(C(=O)NC4CCN(C)CC4)cc3OC)nc2N1C1CCCC1", "values": [{"measurement": "% of control", "setting": "[18]", "value": 93, "unit": "%"}, {"measurement": "% of control", "setting": "[19]", "value": 86, "unit": "%"}, {"measurement": "% of control", "setting": "[20]", "value": 99, "unit": "%"}, {"measurement": "% of control", "setting": "[21]", "value": 72, "unit": "%"}, {"measurement": "% of control", "setting": "[22]", "value": 60, "unit": "%"}, {"measurement": "% of control", "setting": "[23]", "value": 1.2, "unit": "%"}]}
